# In patent US4833268A, “Threo-adrenalinecarboxylic acid, and the production and uses thereof” (Zaidan Hojin Biseibutsu Kagaku Kenkyu Kai, priority 1982, dated 1989):
# Read-outs that look alike come from different tables or passages of the source.
# Key:
# [1] = cited from earlier work; for accumulation of noradrenaline in brain: after intraperitoneal administration, rats; for decarboxylation in vivo, leading to accumulation of noradrenaline in heart: intraperitoneally administered in rats; for levels of noradrenaline in heart and brain: intraperitoneal administration of high dosages
# harmaline-induced tremor = assay: Test 1: inhibitory activity against harmaline-induced tremor; type: in vivo, ddY-strain mice; settings: for Reduction (%) in the duration of tremor action: 30 minutes before harmaline 10 mg/kg i.p., relative to harmaline-only control
# Method: This test was made according to one usual method for screening antiparkinsonian drugs which determines inhibitory activity against harmaline-induced tremor.
# ddY-strain Mice (male, body weight 20-30 g, five in each group) were used as test animal for respective tests. The new compound, DL-threo-adrenalinecarboxylic acid according to this invention, was intraperitoneally administered to each of the mice at a dosage of 400 mg/kg or […], and after the lapse of 30 minutes harmaline was also intrapenitoneally injected to the same mice at a dosage of 10 mg/kg. Then, the duration of tremor action as induced in the mice under test was observed and recorded. The rate (percentage) of reduction in the duration of tremor action in relation to the control group of mice to which only harmaline was administered in the same dosage was calculated by the equation given below. By way of comparison DL-threo-3-(3,4-dihydroxyphenyl)serine (i.e. DL-threo-DOPS) in a dosage of 400 mg/kg was tested in the same manner as above. [formula]
# [2] = type: in vivo, mice; settings: 500 mg/kg i.p., whole brain 90 minutes after administration
# Method: 90 Minutes after the i.p. administration, the whole brain portion was removed surgically from the mice. The quantity of the threo-adrenalinecarboxylic acid or the quantity of the threo-DOPS which was transferred into and accumulated in the brain portion of mice, as well as the quantity of adrenaline in the brain portion of mice were determined by a high-performance liquid chromatography.
# [3] = Test 7: in vitro decarboxylation by supernatant of mouse whole brain homogenate; settings: mouse, brain homogenate supernatant, pH 8
# Method: (§1) The whole brains of mice of ddY-strain were homogenized and the resulting brain homogenate was diluted with the same volume of a buffere solution (comprising 50 mM Tris-HCl (pH 8.6, 1.5 mM EDTA.2Na); 0.5 mM Pridoxal-5-Phosphate; 1 mM Nialamide; and 0.85 mM L-ascorbic acid), and the mixture was centrifuged at 10,000 g to give a supernatant liquid containing the brain enzymes. To this supernatant liquid (500 μl) was added a solution containing 4.5 mM of a substrate selected from L-threo-adrenalinecarboxylic acid, L-threo-DOPS and L-DOPA. The mixture obtained (pH ca. 8, 1.0 ml) was incubated for 30 minutes at 37° C., followed by quantitative determination of adrenaline, noradrenaline or dopamine formed as the reaction product catecholamine.
# (§2) The determination of the catecholamine as produced (adrenaline, noradrenaline or […]) was made according to the following procedure: Thus, the incubated mixture was admixed with aqueous 6% perchloric acid (PCA) for stopping the enzymatic reactions, and the reaction solution so obtained was de-salted by adding thereto potassium carbonate to precipitate the potassium perchlorate, and removing the precipitate by filtration. The de-salted reaction solution was passed through a column of Amberlite CG-50 as developed with 250 μl of 2N-PCA solution and then with 250μl of water. The eluate was analyzed by a high performance liquid chromatography under the following conditions:
# (§3) Mobile Phase: 0.1M Citrate buffer (pH 4.3)-methanol(9:1) containing 0.0025M 1-octane sulfonic acid sodium salt
# (§4) Column temperature: 40° C.
# (§5) Applied voltage: 600 mV vs. Ag/AgCl.
# (§6) The yield of the catecholamine as formed was calculated in term of percentages based on the quantity of the substrate charged, and this calculated yield denotes the rate of decarboxylation of the substrate compound (in %).
# [4] = system: brain enzymes (homogenate of the whole brains of mice); assay: as above
# Method: as §1, §2, §3, §4, §5, §6
# [5] = Test 6: brain concentration of 14C-labelled compound after intravenous administration; type: in vivo, C57 Black-strain mice; settings: administered intraperitoneally or intravenously in mice
# Method: After a last injection of heparin, the treated mice were anesthetized with ethylether and the breast opened surgically. The blood was withdrawn from the heart and the lower portion of the heart ventricle was cut off. A catheter was inserted at the ventricle into the artery and fixed by means of binding threads. The two veins at the neck were opened surgically, and immediately physiological saline was injected through said catheter so that the remaining blood was entirely withdrawn at the opened veins together with the washing saline. The whole brain was removed from the sacrificed mouse, and the whole brain was dried in air at ambient temperature overnight.
# [6] = system: reserpine-induced decrease in the body temperature and muscular rigidity; assay: Test 3: reserpine-induced decrease in body temperature and muscular rigidity (reserpine 2.5 mg/kg s.c.); type: in vivo, ddY-strain mice; settings: for Body Temperature (°C.) (Average ± Standard deviation) 24 Hours after administration of reserpine: 800 mg/kg group, 24 hours after reserpine 2.5 mg/kg s.c., before test compound; for Body Temperature (°C.) (Average ± Standard deviation) 1 Hour after administration of adrenaline carboxylic acid / Muscular Rigidity: number of mice exhibiting significant improvement in the muscular rigidity per the total number of mice in each group: given 24 hours after reserpine 2.5 mg/kg s.c.; for Body Temperature (°C.) (Average ± Standard deviation) Before administration of reserpine: baseline of the 800 mg/kg group, before reserpine and before test compound
# Method: After this, 800 mg/kg of L-threo-adrenalinecarboxylic acid or 800 mg/kg of D-threo-adrenalinecarboxylic acid or DL-threo-adrenalinecarboxylic acid synthetized according to this invention was intraperitoneally administered to the mice having received reserpine. One hour after the administration of the threo-adrenalinecarboxylic acid, the body temperature of the treated mice was determined. Estimation was also made about whether the muscular rigidity as induced by reserpine was improved by the administration of the threo-adrenalinecarboxylic acid of this invention.
# Test 4: acute toxicity = settings: i.p., 0.5 ml per mouse of 20 mg/ml suspension in 0.5% CMC
# Method: This test is carried out to examine acute toxicity of the DL-threo-adrenalinecarboxylic acid.
# To DDB4-strain mice (male, body weight 23-28 g, six in each group) was intraperitoneally administered at a dosage of 0.5 ml per mouse a suspension containing 20 mg/ml of DL-threo-adrenalinecarboxylic acid dispersed in an aqueous solution of 0.5% carboxymethylcellulose (CMC). The mice were then raised under normal conditions for 7 days after the administration of the compound. During these 7 days, the mice were observed and estimated with regard to their body weight, the quantity of feedstock and the quantity of water which were taken by the mice.
# [7] = system: reserpine-induced decrease in the body temperature; assay: Test 2: inhibition of reserpine-induced decrease in body temperature (reserpine 4 mg/kg i.p.); type: in vivo, ddY-strain mice; settings: for Body Temperature (°C.) 1 Hour after / Body Temperature (°C.) 2 Hours after: given 24 hours after reserpine 4 mg/kg i.p.
# Method: ddY-strain Mice (male, body weight 20-30 g, five in each group) were used as the test animal for respective tests. Reserpine was intraperitoneally administered to each mouse at a dose of 4 mg/kg. 24 Hours later, the decreased body temperature of the mice was observed and recorded. After this, 1500 mg/kg or 2000 mg/kg of DL-threo-adrenalinecarboxylic acid was intraperitoneally administered to each of the mice having received reserpine. At the end of 1 hour and at the end of 2 hours after the administration of the DL-threo-adrenalinecarboxylic acid, the body temperature of these treated mice was determined and shown in Table 3 below.
smiles,measurement,setting,value
N[C@H](C(=O)O)[C@@H](O)c1ccc(O)c(O)c1 [L-erythro-DOPS],accumulation of noradrenaline in brain,[1],significant
same,"decarboxylation in vivo, leading to accumulation of noradrenaline in heart",[1],readily decarboxylated in vivo
"N[C@H](C(=O)O)[C@H](O)c1ccc(O)c(O)c1 (relative stereo) [DL-threo-DOPS, DL-threo-3-(3,4-dihydroxyphenyl)serine, reference compound]",Reduction (%) in the duration of tremor action,harmaline-induced tremor; 400 mg/kg i.p.,26%
same,Quantity (as average) of the administered compound present in brain,[2],Not detectable
N[C@@H](C(=O)O)[C@H](O)c1ccc(O)c(O)c1 [D-erythro-DOPS],levels of noradrenaline in heart and brain,[1],slight increase
"CN[C@H](C(=O)O)[C@H](O)c1ccc(O)c(O)c1 [L-threo-adrenalinecarboxylic acid, L-threo-3-(3,4-dihydroxyphenyl)-N-methylserine]","metabolised at 0.5 h, 4500 µM",[3],< 0.00031%
same,"decarboxylation in vitro by homogenate of whole brains of mice, in words","[4]; in vitro, mouse whole brain homogenate",can hardly be decarboxylated into adrenaline
same,"penetration through the blood-brain barrier, in words",[5],can surprisingly penetrate and transfer through the blood-brain barrier into the brain
same,Body Temperature (°C.) (Average ± Standard deviation) 24 Hours after administration of reserpine,[6],35.4 ± 0.4 °C
same,"effect on reserpine-induced decrease in body temperature, in words",[6]; 800 mg/kg i.p.,remarkably inhibits the reserpine-induced decrease in the body temperature
same,"effect on reserpine-induced muscular rigidity, in words",[6]; 800 mg/kg i.p.,remarkably improves (eliminates or weakens) the muscular rigidity
same,Body Temperature (°C.) (Average ± Standard deviation) 1 Hour after administration of adrenaline carboxylic acid,[6]; 800 mg/kg i.p.,38.7 ± 0.5 °C
same,Muscular Rigidity: number of mice exhibiting significant improvement in the muscular rigidity per the total number of mice in each group,[6]; 800 mg/kg i.p.,5/5
same,Body Temperature (°C.) (Average ± Standard deviation) Before administration of reserpine,[6],39.0 ± 0.2 °C
N[C@@H](C(=O)O)[C@@H](O)c1ccc(O)c(O)c1 [D-threo-DOPS],levels of noradrenaline in heart and brain,[1],slight increase
"CN[C@H](C(=O)O)[C@H](O)c1ccc(O)c(O)c1 (relative stereo) [DL-threo-adrenalinecarboxylic acid, DL-threo-3-(3,4-dihydroxyphenyl)-N-methylserine]","acute toxicity: body weight, quantity of feedstock and quantity of water taken, treated vs control group",Test 4: acute toxicity; 7 days observation,No diference could be detected
same,"acute toxicity: anatomical examination, organ weights, bio-chemical tests of blood, tissue-pathological tests, treated vs control group",Test 4: acute toxicity; after 7 days,no significant difference existed
same,Reduction (%) in the duration of tremor action,harmaline-induced tremor; 400 mg/kg i.p.,34%
same,Reduction (%) in the duration of tremor action,harmaline-induced tremor; 600 mg/kg i.p.,37%
same,"reduction in duration of tremor action, comparison in words","harmaline-induced tremor; i.p., harmaline 10 mg/kg",significantly superior to DL-threo-DOPS
same,Quantity (as average) of the administered compound present in brain,[2],2.0 n mole/g
same,Quantity (as average) of adrenaline in brain,[2]; not administered: 0.37 n mole/g,0.44 n mole/g
same,Body Temperature (°C.) (Average ± Standard deviation) 24 Hours after administration of reserpine,[6],34.9 ± 0.7 °C
same,Body Temperature (°C.) (Average ± Standard deviation) 1 Hour after administration of adrenaline carboxylic acid,[6]; 800 mg/kg i.p.,36.9 ± 0.3 °C
same,Muscular Rigidity: number of mice exhibiting significant improvement in the muscular rigidity per the total number of mice in each group,[6]; 800 mg/kg i.p.,0/5
same,Body Temperature (°C.) (Average ± Standard deviation) Before administration of reserpine,[6],39.1 ± 0.2 °C
same,Body Temperature (°C.) 1 Hour after,[7]; 1500 mg/kg i.p.,32.9 °C
same,Body Temperature (°C.) 2 Hours after,[7]; 1500 mg/kg i.p.,32.6 °C
same,Body Temperature (°C.) 1 Hour after,[7]; 2000 mg/kg i.p.,34.0 °C
same,Body Temperature (°C.) 2 Hours after,[7]; 2000 mg/kg i.p.,32.5 °C
same,"effect on reserpine-induced decrease in body temperature, in words","[7]; 1500 or 2000 mg/kg i.p., compared to control mice receiving reserpine only",inhibited the reserpine-induced decrease in the body temperature
"N[C@@H](Cc1ccc(O)c(O)c1)C(=O)O [L-DOPA, L-3,4-dihydroxyphenylalanine]","metabolised at 0.5 h, 4500 µM",[3],> 11.7%
CN[C@@H](C(=O)O)[C@@H](O)c1ccc(O)c(O)c1 [D-threo-adrenalinecarboxylic acid],Body Temperature (°C.) (Average ± Standard deviation) 24 Hours after administration of reserpine,[6],36.0 ± 0.5 °C
same,Body Temperature (°C.) (Average ± Standard deviation) 1 Hour after administration of adrenaline carboxylic acid,[6]; 800 mg/kg i.p.,35.9 ± 0.5 °C
same,Muscular Rigidity: number of mice exhibiting significant improvement in the muscular rigidity per the total number of mice in each group,[6]; 800 mg/kg i.p.,0/5
same,Body Temperature (°C.) (Average ± Standard deviation) Before administration of reserpine,[6],38.9 ± 0.2 °C
"N[C@H](C(=O)O)[C@H](O)c1ccc(O)c(O)c1 [L-threo-DOPS, L-threo-3-(3,4-dihydroxyphenyl)serine]","metabolised at 0.5 h, 4500 µM",[3],> 0.52%
same,"decarboxylation in vitro by homogenate of whole brains of mice, in words",[4],can be decarboxylated into noradrenaline
same,accumulation of natural (l)-noradrenaline in the brain,[1]; after direct injection into a cerebral ventricle,marked
same,accumulation of noradrenaline in brain,[1],negligible
same,"decarboxylation in vivo, leading to accumulation of noradrenaline in heart",[1],readily decarboxylated in vivo
